Measured values as given in US11046647B2, “Activators of the unfolded protein response” (The Board of Trustees of the University of Illinois, priority 2018, dated 2021).

Assays:
[1] = test system: CaOV-3 ovarian cancer cells; test: Automated Trypan Blue exclusion cell death assay, Caov-3; format: cell-based, human; conditions: 24 hours
Method: FIG. 33. 105, but not BHPI, kills therapy-resistant ovarian CaOV-3 ovarian cancer cells. (±)-105; Cell death assay: Automated Trypan Blue exclusion. (24 hours post (±)-105)
(§1) TRYPAN BLUE: For decades, viable cells have been measured by their ability to exclude the dye Trypan Blue. […] Dead cells, which have lost membrane integrity, take up the dye and are blue. Thus, the percentage of dead cells is the percentage of cells that are Trypan Blue positive out of the total cell population. Quantitative assessment of Trypan Blue uptake uses a cell counter from Fisher. Since the assay is instrument based, there is no observer bias in determining the percentage of Trypan Blue positive cells.
TRYPAN BLUE ASSAYS: Assays are performed on cells in 6 well plates: 300,000 cells are plated in each well of a 6-well plate in 3 ml of medium. After 24 hours, the DMSO vehicle or the indicated compound is added (in 1000th of the vol.) The cells incubated for an additional 24 hours, and then harvested in 0.25 ml of trypsin, followed after harvest by 0.75 ml of medium. The cells are spun down and resuspended in 100-200 μl of medium left that is over the cell pellet (resuspend cells by pipetting up and down a few times). Add 10 μl to 10 μl of trypan blue. Then 10 μl is inserted into the counting slide. […]

[2] = test system: ERα Negative MCF-10A cells; test: Trypan Blue exclusion cell death assay, MCF-10A; format: cell-based; conditions: 75 nM, 24 hours
Excerpt: as §1
TRYPAN BLUE ASSAYS: Assays are performed on cells in 6 well plates: 300,000 cells are plated in each well of a 6-well plate in 3 ml of medium. After 24 hours, the DMSO vehicle or the indicated compound is added (in 1000th of the vol.) The cells incubated for an additional 24 hours, and then harvested in 0.25 ml of trypsin, followed after harvest by 0.75 ml of medium. The cells are spun down and resuspended in 100-200 μl of medium left that is over the cell pellet (resuspend cells by pipetting up and down a few times). Add 10 μl to 10 μl of trypan blue. Then 10 μl is inserted into the counting slide. After inserting the slide into the Fisher TC20 counting is automatic (these many cells are needed because an accurate ratio of Trypan Blue positive to Trypan Blue negative cells requires about 200 cells in the field the instrument counts).
In FIG. 28, neither the test compounds nor BHPI kill non-tumorigenic ERα Negative MCF-10A breast cells. ERα Negative MCF-10A cells were maintained for 24 hours in DMSO vehicle or 75 nM of BHPI or 75 nM of each of the indicated test compounds: 4, 6 and 105. Cell death was determined using the instrument-based Trypan Blue exclusion assay. (n=3±SEM).

MCF-7 cells = test: Trypan Blue exclusion cell death assay, MCF-7; format: cell-based, human; conditions: 24 hours
Excerpt: as §1
TRYPAN BLUE ASSAYS: Assays are performed on cells in 6 well plates: 300,000 cells are plated in each well of a 6-well plate in 3 ml of medium. After 24 hours, the DMSO vehicle or the indicated compound is added (in 1000th of the vol.) The cells incubated for an additional 24 hours, and then harvested in 0.25 ml of trypsin, followed after harvest by 0.75 ml of medium. […]
The Trypan Blue cell death assay was used to evaluate the ability of the active enantiomer of 105 (−) [(−)-105] to kill ERα positive MCF-7 and TYS-Luc, human breast cancer cells. […] After 24 hours, the cells were harvested, and the % dead cells was determined by automated Trypan Blue exclusion using the Countess II automated hemocytometer. Percentage of viable cells was calculated by doing 100-(Cell Death %). […]

[3] = test system: panel of cancer cell lines; test: Alamar blue 24-hour IC50 against a panel of cancer cell lines; format: cell-based; conditions: Homo sapiens, average
Method: FIG. 36. Discovery of SERK-F6 (also known as, C(−)-105, (−)-105, (R)-105, (−)-1, or (R)-1), a compound that kills ERα-positive cancer cells, a, Chemical structures of BHPI and racemic compound 1 (i.e. (±)-1), and their cytotoxic activity on T47D breast cancer cells after 24-hour incubations with concentrations as indicated in nM. Cells were stained with annexin V-FITC and PI dyes prior to analysis via flow cytometry. […] Cells were incubated with SERK-F6 or positive control, Raptinal, for 24 hours and then stained with annexin V-FITC and PI dyes and analyzed via flow cytometry. […] Cell viability was measured by Alamar blue fluorescence and set relative to a vehicle control and a quantitative dead control treated with Raptinal. […] Cell number was determined by MTS.
FIG. 40. […] Concentration was determined via LC/MS/MS analysis. […] Concentrations were determined via LC/MS/MS analysis. […]
Cell lines: ERα positive breast cancer: T47D, MCF-7 TYS (T47D Y537S) TDG (T47D D538G), BT-474; ERα negative MDA-MB-231 breast cancer cells; 6,000 cells/well were plated (96 well plate) in 100 μl of medium. […] After 2-4 hours fluorescence in the wells was read (λex: 555 nm, λem: 585 nm, Spectra Max M3 Plate reader). % relative death was determined by setting the reading for 10,000 nM raptinal-treated cells to 100% dead cells and the reading for vehicle-treated cells to 0% dead cells. […]

[4] = test system: partially BHPI-resistant T47D clones 1,3,8, and 11; test: MTS growth assay, partially BHPI-resistant T47D clones; format: cell-based, human; conditions: 100 nM and 1 μM; 4 days
Method: (§2) ERα containing T47D human breast cancer cells able to survive in 1 μM BHPI were selected by clonal outgrowth. The effect of 100 nM and 1 μM BHPI and (−)-105 on growth of the (BHPI-sensitive) parental T47D cells and partially BHPI-resistant T47D clones 1,3,8, and 11 was evaluated. 4,000 cells/well were plated. Cell number was determined by MTS assay from a standard curve of absorbance versus cell number. […] Thus, in 4 days (−)-105 killed some, but not all, of the resistant cells.

parental T47D cells = test: MTS growth assay, parental T47D cells; format: cell-based, human; conditions: 100 nM and 1 μM; 4 days
Method: as §2

In the case of `O=C1Nc2c(C(F)(F)F)cccc2C1(c1ccc(O)cc1)c1ccc(OC(F)(F)F)cc1` (racemic) [(±)-105, 3-(4-hydroxyphenyl)-3-(4-(trifluoromethoxy)phenyl)-7-(trifluoromethyl)indolin-2-one], the “killing of Caov-3 cells” value [1] is reported as “kills” and the “cell death of MCF-10A cells” value [2] is reported as “neither BHPI nor any of the test compounds induce significant death”.
With `O=C1Nc2c(C(F)(F)F)cccc2C1(c1ccc(O)cc1)c1ccc(OC(F)(F)F)cc1` (single isomer, unassigned; (-)) [(−)-105, 3-(4-hydroxyphenyl)-3-(4-(trifluoromethoxy)phenyl)-7-(trifluoromethyl)indolin-2-one] the “killing of MCF-7 cells, dose response” value (MCF-7 cells) was “superior to BHPI”, the IC50 [3] was 42 nM and the “effect on growth / cell number” value [4] was “completely blocked the growth of the resistant clones”. The “effect on growth / cell number” value (parental T47D cells) was “killed all the T47D cells”.
